According to PubChem BioAssay (NCI):
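96-well plates; 48 h exposure; 5 concentrations. Endpoints by linear interpolation between flanking doses. Not reached: highest tested concentration assigned. At the TGI there is no net growth.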

Key:
Assay in all cases: NCI tumour cell line growth inhibition, 48 h
SF-268 CNS = tested on: SF-268 CNS
CCRF-CEM leukemia = tested on: CCRF-CEM leukemia
SK-MEL-2 melanoma = tested on: SK-MEL-2 melanoma
DU-145 prostate = tested on: DU-145 prostate
A549 NSCLC = tested on: A549 NSCLC
MDA-MB-231 breast = tested on: MDA-MB-231 breast
SNB-19 CNS = tested on: SNB-19 CNS
OVCAR-3 ovarian = tested on: OVCAR-3 ovarian
IGROV1 ovarian = tested on: IGROV1 ovarian
BT-549 breast = tested on: BT-549 breast
OVCAR-8 ovarian = tested on: OVCAR-8 ovarian
786-0 renal = tested on: 786-0 renal
HL-60(TB) leukemia = tested on: HL-60(TB) leukemia
EKVX NSCLC = tested on: EKVX NSCLC
TK-10 renal = tested on: TK-10 renal
HT29 colon = tested on: HT29 colon
HOP-92 NSCLC = tested on: HOP-92 NSCLC
SK-OV-3 ovarian = tested on: SK-OV-3 ovarian
K-562 leukemia = tested on: K-562 leukemia
SN12C renal = tested on: SN12C renal
OVCAR-5 ovarian = tested on: OVCAR-5 ovarian
NCI-H23 lung = tested on: NCI-H23 lung
SNB-75 CNS = tested on: SNB-75 CNS
M14 melanoma = tested on: M14 melanoma
SF-295 CNS = tested on: SF-295 CNS
RPMI-8226 leukemia = tested on: RPMI-8226 leukemia
MDA-MB-435 = tested on: MDA-MB-435
NCI/ADR-RES ovarian = tested on: NCI/ADR-RES ovarian
COLO 205 colon = tested on: COLO 205 colon
SK-MEL-5 melanoma = tested on: SK-MEL-5 melanoma
SK-MEL-28 melanoma = tested on: SK-MEL-28 melanoma
NCI-H522 lung = tested on: NCI-H522 lung
UACC-62 melanoma = tested on: UACC-62 melanoma
MCF7 breast = tested on: MCF7 breast
U251 CNS = tested on: U251 CNS
PC-3 prostate = tested on: PC-3 prostate
CAKI-1 renal = tested on: CAKI-1 renal
OVCAR-4 ovarian = tested on: OVCAR-4 ovarian
NCI-H460 lung = tested on: NCI-H460 lung
T-47D breast = tested on: T-47D breast
SW-620 colon = tested on: SW-620 colon
UACC-257 melanoma = tested on: UACC-257 melanoma
LOX IMVI melanoma = tested on: LOX IMVI melanoma
MDA-N = tested on: MDA-N
SR leukemia = tested on: SR leukemia
HS 578T breast = tested on: HS 578T breast
ACHN renal = tested on: ACHN renal
MOLT-4 leukemia = tested on: MOLT-4 leukemia
HOP-62 NSCLC = tested on: HOP-62 NSCLC
UO-31 renal = tested on: UO-31 renal
KM12 colon = tested on: KM12 colon
HCT-15 colon = tested on: HCT-15 colon
HCC-2998 colon = tested on: HCC-2998 colon
A498 renal = tested on: A498 renal
NCI-H226 lung = tested on: NCI-H226 lung
MALME-3M melanoma = tested on: MALME-3M melanoma
HCT-116 colon = tested on: HCT-116 colon
SF-539 CNS = tested on: SF-539 CNS
RXF 393 renal = tested on: RXF 393 renal

SMILES: Cc1cc(C)nc(NS(=O)(=O)c2ccc(Nc3c4ccccc4nc4c(C(=O)NC(CO)(CO)CO)cccc34)cc2)n1
- TGI (SF-268 CNS): > 100 µM
- TGI (CCRF-CEM leukemia): 58.9 µM
- TGI (SK-MEL-2 melanoma): 44.4 µM
- TGI (DU-145 prostate): > 100 µM
- TGI (A549 NSCLC): 73.2 µM
- TGI (MDA-MB-231 breast): > 100 µM
- TGI (SNB-19 CNS): > 100 µM
- TGI (OVCAR-3 ovarian): > 100 µM
- TGI (IGROV1 ovarian): > 100 µM
- TGI (BT-549 breast): 44.2 µM
- TGI (OVCAR-8 ovarian): > 100 µM
- TGI (786-0 renal): > 100 µM
- TGI (HL-60(TB) leukemia): 97.9 µM
- TGI (EKVX NSCLC): > 100 µM
- TGI (TK-10 renal): 68.9 µM
- TGI (HT29 colon): 70.8 µM
- TGI (HOP-92 NSCLC): > 100 µM
- TGI (SK-OV-3 ovarian): > 100 µM
- TGI (K-562 leukemia): > 100 µM
- TGI (SN12C renal): > 100 µM
- TGI (OVCAR-5 ovarian): 88.4 µM
- TGI (NCI-H23 lung): > 100 µM
- TGI (SNB-75 CNS): 55.2 µM
- TGI (M14 melanoma): > 100 µM
- TGI (SF-295 CNS): > 100 µM
- TGI (RPMI-8226 leukemia): 91.8 µM
- TGI (MDA-MB-435): 51.6 µM
- TGI (NCI/ADR-RES ovarian): > 100 µM
- TGI (COLO 205 colon): 42.6 µM
- TGI (SK-MEL-5 melanoma): 44.5 µM
- TGI (SK-MEL-28 melanoma): 62.5 µM
- TGI (NCI-H522 lung): 31.7 µM
- TGI (UACC-62 melanoma): > 100 µM
- TGI (MCF7 breast): > 100 µM
- TGI (U251 CNS): 83.5 µM
- TGI (PC-3 prostate): > 100 µM
- TGI (CAKI-1 renal): > 100 µM
- TGI (OVCAR-4 ovarian): > 100 µM
- TGI (NCI-H460 lung): 35.3 µM
- TGI (T-47D breast): > 100 µM
- TGI (SW-620 colon): > 100 µM
- TGI (UACC-257 melanoma): > 100 µM
- TGI (LOX IMVI melanoma): 42.2 µM
- TGI (MDA-N): 68.8 µM
- TGI (SR leukemia): 67.2 µM
- TGI (HS 578T breast): > 100 µM
- TGI (ACHN renal): > 100 µM
- TGI (MOLT-4 leukemia): > 100 µM
- TGI (HOP-62 NSCLC): > 100 µM
- TGI (UO-31 renal): > 100 µM
- TGI (KM12 colon): 36.4 µM
- TGI (HCT-15 colon): > 100 µM
- TGI (HCC-2998 colon): 36.1 µM
- TGI (A498 renal): > 100 µM

SMILES: CCN1c2cc(Br)cc3[nH]c(=O)n(c23)CCC1C (stereo unspecified)
- TGI (SF-268 CNS): 46.1 µM
- TGI (CCRF-CEM leukemia): > 100 µM
- TGI (SK-MEL-2 melanoma): 31.8 µM
- TGI (DU-145 prostate): 36 µM
- TGI (A549 NSCLC): 35.1 µM
- TGI (MDA-MB-231 breast): 43.1 µM
- TGI (SNB-19 CNS): > 100 µM
- TGI (OVCAR-3 ovarian): 28.9 µM
- TGI (IGROV1 ovarian): 31.5 µM
- TGI (BT-549 breast): 31.2 µM
- TGI (OVCAR-8 ovarian): 30.9 µM
- TGI (786-0 renal): 28.1 µM
- TGI (NCI-H226 lung): 37.8 µM
- TGI (HL-60(TB) leukemia): 35.8 µM
- TGI (EKVX NSCLC): 23.5 µM
- TGI (TK-10 renal): 49.2 µM
- TGI (HT29 colon): 31.6 µM
- TGI (HOP-92 NSCLC): 9.25 µM
- TGI (SK-OV-3 ovarian): 49.4 µM
- TGI (K-562 leukemia): > 100 µM
- TGI (SN12C renal): 30.6 µM
- TGI (MALME-3M melanoma): 56.1 µM
- TGI (OVCAR-5 ovarian): 49.9 µM
- TGI (NCI-H23 lung): 53.2 µM
- TGI (SNB-75 CNS): 32.4 µM
- TGI (HCT-116 colon): 28.3 µM
- TGI (M14 melanoma): 34.8 µM
- TGI (SF-295 CNS): 39.6 µM
- TGI (RPMI-8226 leukemia): > 100 µM
- TGI (MDA-MB-435): 16.8 µM
- TGI (NCI/ADR-RES ovarian): 23 µM
- TGI (COLO 205 colon): 31.3 µM
- TGI (SK-MEL-5 melanoma): 30 µM
- TGI (SK-MEL-28 melanoma): 65.8 µM
- TGI (UACC-62 melanoma): 24.6 µM
- TGI (SF-539 CNS): > 100 µM
- TGI (MCF7 breast): 54.5 µM
- TGI (U251 CNS): 28.6 µM
- TGI (PC-3 prostate): 39.7 µM
- TGI (CAKI-1 renal): 36 µM
- TGI (OVCAR-4 ovarian): 65.2 µM
- TGI (NCI-H460 lung): 35.9 µM
- TGI (T-47D breast): 59.9 µM
- TGI (SW-620 colon): > 100 µM
- TGI (UACC-257 melanoma): 40.6 µM
- TGI (LOX IMVI melanoma): 24.7 µM
- TGI (MDA-N): 19.2 µM
- TGI (SR leukemia): 65.9 µM
- TGI (HS 578T breast): 28.9 µM
- TGI (ACHN renal): 63.5 µM
- TGI (MOLT-4 leukemia): 65.5 µM
- TGI (HOP-62 NSCLC): 37.2 µM
- TGI (UO-31 renal): 37.7 µM
- TGI (KM12 colon): 47.4 µM
- TGI (RXF 393 renal): 27.6 µM
- TGI (HCT-15 colon): 35.5 µM
- TGI (HCC-2998 colon): 31.6 µM
- TGI (A498 renal): 29 µM

SMILES: C=C1[C@H](OCC(C)C)[C@@H](O)[C@@H](OC(=O)c2cccnc2)C(C)(C)/C=C/[C@H](C)[C@H](OC(C)=O)[C@@]2(O)C[C@@](C)(OC(C)=O)[C@H](OC(=O)c3ccccc3)[C@@H]2[C@H]1OC(C)=O
- TGI (SF-268 CNS): > 3.24 µM
- TGI (CCRF-CEM leukemia): > 2.82 µM
- TGI (SK-MEL-2 melanoma): > 3.78 µM
- TGI (DU-145 prostate): > 5 µM
- TGI (A549 NSCLC): > 5 µM
- TGI (MDA-MB-231 breast): > 5 µM
- TGI (SNB-19 CNS): > 5 µM
- TGI (OVCAR-3 ovarian): > 3.67 µM
- TGI (IGROV1 ovarian): > 5 µM
- TGI (BT-549 breast): > 4.23 µM
- TGI (OVCAR-8 ovarian): > 3.28 µM
- TGI (786-0 renal): > 5 µM
- TGI (NCI-H226 lung): 4.57 µM
- TGI (HL-60(TB) leukemia): > 2.09 µM
- TGI (EKVX NSCLC): > 5 µM
- TGI (TK-10 renal): > 5 µM
- TGI (HT29 colon): 1.17 µM
- TGI (HOP-92 NSCLC): > 5 µM
- TGI (SK-OV-3 ovarian): > 5 µM
- TGI (K-562 leukemia): > 3.36 µM
- TGI (SN12C renal): > 5 µM
- TGI (MALME-3M melanoma): 1.46 µM
- TGI (OVCAR-5 ovarian): > 5 µM
- TGI (NCI-H23 lung): > 3.13 µM
- TGI (SNB-75 CNS): > 2.87 µM
- TGI (HCT-116 colon): > 5 µM
- TGI (M14 melanoma): > 4.49 µM
- TGI (SF-295 CNS): > 4.14 µM
- TGI (RPMI-8226 leukemia): 3.35 µM
- TGI (MDA-MB-435): > 3.97 µM
- TGI (NCI/ADR-RES ovarian): > 3.25 µM
- TGI (COLO 205 colon): > 5 µM
- TGI (SK-MEL-5 melanoma): > 5 µM
- TGI (SK-MEL-28 melanoma): > 5 µM
- TGI (NCI-H522 lung): 2.54 µM
- TGI (UACC-62 melanoma): > 5 µM
- TGI (SF-539 CNS): 1.58 µM
- TGI (MCF7 breast): > 5 µM
- TGI (U251 CNS): > 5 µM
- TGI (PC-3 prostate): > 5 µM
- TGI (CAKI-1 renal): > 5 µM
- TGI (OVCAR-4 ovarian): > 5 µM
- TGI (NCI-H460 lung): 1.52 µM
- TGI (T-47D breast): > 5 µM
- TGI (SW-620 colon): > 5 µM
- TGI (UACC-257 melanoma): > 5 µM
- TGI (LOX IMVI melanoma): > 5 µM
- TGI (MDA-N): > 5 µM
- TGI (SR leukemia): > 3.35 µM
- TGI (HS 578T breast): > 2.39 µM
- TGI (ACHN renal): 2.87 µM
- TGI (MOLT-4 leukemia): > 2.79 µM
- TGI (HOP-62 NSCLC): 2.26 µM
- TGI (UO-31 renal): > 1.24 µM
- TGI (KM12 colon): > 2.97 µM
- TGI (RXF 393 renal): > 5 µM
- TGI (HCT-15 colon): 4.97 µM
- TGI (HCC-2998 colon): 1.59 µM
- TGI (A498 renal): 2.79 µM
